In patent EP2955182A1, “Pyridazinones for the treatment of cancer” (Max-Planck-Gesellschaft zur Förderung der Wissenschaften …, priority 2014, dated 2015) one finds Kd data, which are given here for 33 molecules.

For this assay, the target named is PDEδ (Homo sapiens, UniProt O43924). In words: Fluorescence polarization competition binding assay (displacement titration of labeled Atorvastatin-probe). The settings on record: fluorescence polarization assay, displacement of fluorescent-tagged Atorvastatin analog from PDEδ. The text has this:
Example C.2: Displacement titrations of labeled Atorvastatin-probe for the determination of KD values:
Table 3. KD values for compounds of general formula (I) as determined by means of fluorescence polarization assay

pKd: −log10 of the molar value. Like-named read-outs stand apart in the source and are kept apart here. Some results are limits rather than exact numbers.

For the molecule `Cc1c2cnn(-c3ccccc3)c(=O)c2c(C)n1CCCC(=O)NCc1ccccc1` [Compound 1, N-benzyl-4-(5,7-dimethyl-1-oxo-2-phenyl-1H-pyrrolo[3,4-d]pyridazin-6(2H)-yl)butanamide], the pKd (read-out: KD) is 7.00 to 7.52. Regarding `COc1cccc(CNC(=O)CCCn2c(C)c3cnn(-c4ccccc4)c(=O)c3c2C)c1` [Compound 2, 4-(5,7-dimethyl-1-oxo-2-phenyl-1H-pyrrolo[3,4-d]pyridazin-6(2H)-yl)-N-(3-methoxybenzyl)butanamide], under “read-out: KD”, the pKd is 7.00 to 7.52. Still for that read-out and setting: as for `Cc1c2cnn(-c3ccccc3)c(=O)c2c(C)n1CCCC(=O)NCc1cccc(Cl)c1` [Compound 3, N-(3-chlorobenzyl)-4-(5,7-dimethyl-1-oxo-2-phenyl-1H-pyrrolo[3,4-d]pyridazin-6(2H)-yl)butanamide], the figure is 7.00 to 7.52; as for `Cc1c2cnn(-c3ccccc3)c(=O)c2c(C)n1CCCC(=O)NCc1ccccc1Cl` [Compound 4, N-(2-chlorobenzyl)-4-(5,7-dimethyl-1-oxo-2-phenyl-1H-pyrrolo[3,4-d]pyridazin-6(2H)-yl)butanamide], more than 7.52; as for `Cc1c2cnn(-c3ccccc3)c(=O)c2c(C)n1CCCC(=O)NCc1ccc(Cl)cc1` [Compound 5, N-(4-chlorobenzyl)-4-(5,7-dimethyl-1-oxo-2-phenyl-1H-pyrrolo[3,4-d]pyridazin-6(2H)-yl)butanamide], 7.00 to 7.52. On the same count and under the same terms, as for `Cc1c2cnn(-c3ccccc3)c(=O)c2c(C)n1CCCC(=O)NCc1cccs1` [Compound 6, 4-(5,7-dimethyl-1-oxo-2-phenyl-1H-pyrrolo[3,4-d]pyridazin-6(2H)-yl)-N-(thiophen-2-ylmethyl)butanamide], the figure is 6.00 to 7.00; as for `Cc1c2cnn(-c3ccccc3)c(=O)c2c(C)n1CCCC(=O)NCc1ccco1` [Compound 7, 4-(5,7-dimethyl-1-oxo-2-phenyl-1H-pyrrolo[3,4-d]pyridazin-6(2H)-yl)-N-(furan-2-ylmethyl)butanamide], 6.00 to 7.00; as for `Cc1c2cnn(-c3ccccc3)c(=O)c2c(C)n1CCCC(=O)NCc1ccccn1` [Compound 8, 4-(5,7-dimethyl-1-oxo-2-phenyl-1H-pyrrolo[3,4-d]pyridazin-6(2H)-yl)-N-(pyridin-2-ylmethyl)butanamide], 6.00 to 7.00. Still for that read-out and setting: under `Cc1c2cnn(-c3ccccc3)c(=O)c2c(C)n1CCCC(=O)NC1CC1` [Compound 9, N-cyclopropyl-4-(5,7-dimethyl-1-oxo-2-phenyl-1H-pyrrolo[3,4-d]pyridazin-6(2H)-yl)butanamide] stands 6.00 to 7.00; under `Cc1c2cnn(-c3ccccc3)c(=O)c2c(C)n1CCCC(=O)NC1CCCC1` [Compound 10, N-cyclopentyl-4-(5,7-dimethyl-1-oxo-2-phenyl-1H-pyrrolo[3,4-d]pyridazin-6(2H)-yl)butanamide], 7.00 to 7.52; under `Cc1c2cnn(-c3ccccc3)c(=O)c2c(C)n1CCCC(=O)NC1CCCCC1` [Compound 11, N-cyclohexyl-4-(5,7-dimethyl-1-oxo-2-phenyl-1H-pyrrolo[3,4-d]pyridazin-6(2H)-yl)butanamide], more than 7.52.

With `Cc1c2cnn(-c3ccccc3)c(=O)c2c(C)n1CCCC(=O)NC1CCC(C)CC1` (stereo not drawn) [Compound 12, 4-(5,7-dimethyl-1-oxo-2-phenyl-1H-pyrrolo[3,4-d]pyridazin-6(2H)-yl)-N-(4-methylcyclohexyl)butanamide], for the setting “read-out: KD”, the pKd is more than 7.52. The same measure, in the same setting: under `Cc1c2cnn(-c3ccccc3)c(=O)c2c(C)n1CCCC(=O)NC1CCCCC1C` (stereo not drawn) [Compound 13, 4-(5,7-dimethyl-1-oxo-2-phenyl-1H-pyrrolo[3,4-d]pyridazin-6(2H)-yl)-N-(2-methylcyclohexyl)butanamide] stands more than 7.52; under `Cc1c2cnn(-c3ccccc3)c(=O)c2c(C)n1CCCC(=O)NC1CCCC(C)C1C` (stereo not drawn) [Compound 14, 4-(5,7-dimethyl-1-oxo-2-phenyl-1H-pyrrolo[3,4-d]pyridazin-6(2H)-yl)-N-(2,3-dimethylcyclohexyl)butanamide], more than 7.52; under `Cc1c2cnn(-c3ccccc3)c(=O)c2c(C)n1CCCc1nc2ccccc2n1Cc1ccccc1` [Compound 15, 6-(3-(1-benzyl-1H-benzo[d]imidazol-2-yl)propyl)-5,7-dimethyl-2-phenyl-2,6-dihydro-1H-pyrrolo[3,4-d]pyridazin-1-one], more than 7.52. The same measure, in the same setting: as for `Cc1c2cnn(-c3ccccc3)c(=O)c2c(C)n1CCCc1nc(-c2ccccc2)no1` [Compound 16, 5,7-dimethyl-2-phenyl-6-(3-(3-phenyl-1,2,4-oxadiazol-5-yl)propyl)-2,6-dihydro-1H-pyrrolo[3,4-d]pyridazin-1-one], the figure is 6.00 to 7.00. Same read-out and setting: as for `Cc1ccc(-c2noc(CCCn3c(C)c4cnn(-c5ccccc5)c(=O)c4c3C)n2)cc1` [Compound 17, 5,7-dimethyl-2-phenyl-6-(3-(3-(p-tolyl)-1,2,4-oxadiazol-5-yl)propyl)-2,6-dihydro-1H-pyrrolo[3,4-d]pyridazin-1-one], the figure is less than 6.00; as for `COc1ccc(-c2noc(CCCn3c(C)c4cnn(-c5ccccc5)c(=O)c4c3C)n2)cc1` [Compound 18, 6-(3-(3-(4-methoxyphenyl)-1,2,4-oxadiazol-5-yl)propyl)-5,7-dimethyl-2-phenyl-2,6-dihydro-1H-pyrrolo[3,4-d]pyridazin-1-one], less than 6.00. With `COc1ccc(OC)c(-c2noc(CCCn3c(C)c4cnn(-c5ccccc5)c(=O)c4c3C)n2)c1` [Compound 19, 6-(3-(3-(2,5-dimethoxyphenyl)-1,2,4-oxadiazol-5-yl)propyl)-5,7-dimethyl-2-phenyl-2,6-dihydro-1H-pyrrolo[3,4-d]pyridazin-1-one], the pKd (read-out: KD) is less than 6.00.

For the molecule `Cc1c2cnn(-c3ccccc3)c(=O)c2c(C)n1CCCc1nc(-c2ccc(C(F)(F)F)cc2)no1` [Compound 20, 5,7-dimethyl-2-phenyl-6-(3-(3-(4-(trifluoromethyl)phenyl)-1,2,4-oxadiazol-5-yl)propyl)-2,6-dihydro-1H-pyrrolo[3,4-d]pyridazin-1-one], for the setting “read-out: KD”, the pKd is less than 6.00.

Regarding `Cc1c2cnn(-c3ccccc3)c(=O)c2c(C)n1CCCc1nc(-c2ccc(F)cc2)no1` [Compound 21, 6-(3-(3-(4-fluorophenyl)-1,2,4-oxadiazol-5-yl)propyl)-5,7-dimethyl-2-phenyl-2,6-dihydro-1H-pyrrolo[3,4-d]pyridazin-1-one], the pKd (read-out: KD) is 6.00 to 7.00. Turning to `Cc1c2cnn(-c3ccccc3)c(=O)c2c(C)n1CCCc1nnc(-c2ccccc2)o1` [Compound 22, 5,7-dimethyl-2-phenyl-6-(3-(5-phenyl-1,3,4-oxadiazol-2-yl)propyl)-2,6-dihydro-1H-pyrrolo[3.4-d]pyridazin-1-one], under “read-out: KD”, the pKd is 6.00 to 7.00. Same read-out and setting: as for `Cc1ccc(-c2nnc(CCCn3c(C)c4cnn(-c5ccccc5)c(=O)c4c3C)o2)cc1` [Compound 23, 5,7-dimethyl-2-phenyl-6-(3-(5-(p-tolyl)-1,3,4-oxadiazol-2-yl)propyl)-2,6-dihydro-1H-pyrrolo[3,4-d]pyridazin-1-one], the figure is less than 6.00.

As to `COc1ccc(-c2nnc(CCCn3c(C)c4cnn(-c5ccccc5)c(=O)c4c3C)o2)cc1` [Compound 24, 6-(3-(5-(4-methoxyphenyl)-1,3,4-oxadiazol-2-yl)propyl)-5,7-dimethyl-2-phenyl-2,6-dihydro-1H-pyrrolo[3,4-d]pyridazin-1-one], the pKd (read-out: KD) was less than 6.00. Still for that read-out and setting: under `COc1ccccc1-c1nnc(CCCn2c(C)c3cnn(-c4ccccc4)c(=O)c3c2C)o1` [Compound 25, 6-(3-(5-(2-methoxyphenyl)-1,3,4-oxadiazol-2-yl)propyl)-5,7-dimethyl-2-phenyl-2,6-dihydro-1H-pyrrolo[3,4-d]pyridazin-1-one] stands 6.00 to 7.00. With `Cc1c2cnn(-c3ccccc3)c(=O)c2c(C)n1CCCc1nnc(-c2ccc(C(F)(F)F)cc2)o1` [Compound 26, 5,7-dimethyl-2-phenyl-6-(3-(5-(4-(trifluoromethyl)phenyl)-1,3,4-oxadiazol-2-yl)propyl)-2,6-dihydro-1H-pyrrolo[3,4-d]pyridazin-1-one], under “read-out: KD”, the pKd is 6.00 to 7.00. Same read-out and setting: as for `Cc1c2cnn(-c3ccccc3)c(=O)c2c(C)n1CCCc1nnc(-c2ccc(F)cc2)o1` [Compound 27, 6-(3-(5-(4-fluorophenyl)-1,3,4-oxadiazol-2-yl)propyl)-5,7-dimethyl-2-phenyl-2,6-dihydro-1H-pyrrolo[3,4-d]pyridazin-1-one], the figure is 6.00 to 7.00; as for `Cc1c2cnn(-c3ccccc3)c(=O)c2c(C)n1CCCc1nnc(-c2ccncc2)o1` [Compound 28, 5,7-dimethyl-2-phenyl-6-(3-(5-(pyridin-4-yl)-1,3,4-oxadiazol-2-yl)propyl)-2,6-dihydro-1H-pyrrolo[3,4-d]pyridazin-1-one], less than 6.00. Regarding `Cc1c(Cl)cccc1NC(=O)CCCn1nc(C)c2c(C)n(-c3ccccc3)nc2c1=O` [Compound 29, N-(3-chloro-2-methylphenyl)-4-(3,4-dimethyl-7-oxo-2-phenyl-2H-pyrazolo[3,4-d]pyridazin-6(7H)-yl)butanamide], the pKd is more than 7.52.

As to `Cc1nn(CCCC(=O)NCc2ccco2)c(=O)c2nn(-c3ccccc3)c(C)c12` [Compound 30, 4-(3,4-dimethyl-7-oxo-2-phenyl-2H-pyrazolo[3,4-d]pyridazin-6(7H)-yl)-N-(furan-2-ylmethyl)butanamide], the pKd (read-out: KD) is 7.00 to 7.52. Turning to `Cc1nn(CCCC(=O)NCc2ccccc2)c(=O)c2nn(-c3ccccc3)c(C)c12` [Compound 31, N-benzyl-4-(3,4-dimethyl-7-oxo-2-phenyl-2H-pyrazolo[3,4-d]pyridazin-6(7H)-yl)butanamide], the pKd (read-out: KD) is 7.00 to 7.52. The same measure, in the same setting: as for `COc1ccc(CNC(=O)CCCn2nc(C)c3c(C)n(-c4ccccc4)nc3c2=O)cc1` [Compound 32, 4-(3,4-dimethyl-7-oxo-2-phenyl-2H-pyrazolo[3,4-d]pyridazin-6(7H)-yl)-N-(4-methoxybenzyl)butanamide], the figure is 7.00 to 7.52. On the same count and under the same terms, as for `COc1cccc(CNC(=O)CCCn2nc(C)c3c(C)n(-c4ccccc4)nc3c2=O)c1` [Compound 33, 4-(3,4-dimethyl-7-oxo-2-phenyl-2H-pyrazolo[3,4-d]pyridazin-6(7H)-yl)-N-(3-methoxybenzyl)butanamide], the figure is 7.00 to 7.52.

In general, pKd refers to −log10 of the Kd, conventionally taken in molar units.
